Records with an inconclusive call do not appear. The source made the active and inactive calls.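 Rule for the calls: active = relative estrogen receptor binding affinity above 1E-5, where estradiol scores 100; inconclusive = weak binder, under half inhibition at top dose, or affinity below 1E-5; inactive = no binding seen, affinity zero.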

The data set relates to estrogen receptor (rat uterine cytosol). Nature of the data set: DSSTox (NCTRER) National Center for Toxicological Research Estrogen Receptor Binding Database.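 For relative binding affinity: ratio of estradiol IC50 over compound IC50 times 100 so estradiol equals 100.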 The note with it: rat uterine cytosol ER competitive binding, RBA; for relative binding affinity: hits give high values. The text has this:
Researchers within FDA's National Center for Toxicological Research (NCTR) generated a database of experimental estrogen receptor binding results for the express purpose of developing improved QSAR models to predict ER binding affinities.The NCTR ER database is a structurally diverse set of natural, synthetic, and environmental estrogens covering most known estrogenic classes and spanning a wide range of biological activity. It represents the largest published ER binding database of same-assay results generated in a single laboratory. […] Information on the percent purity and purchasing source for all chemicals are not included in the DSSTox SDF, but can be obtained from the original NCTR ER Source database and Main Citations listed below. The main citation (Fang et al., 2001) surveys the NCTR ER database from a chemical class based, structure-activity relationship (SAR) perspective. Qualitative SAR characteristics of the NCTR ER database are discussed and a set of general hierarchical rules for identifying potential estrogens are presented. The DSSTox NCTRER SDF augments the original NCTR ER database with chemical class and SAR information abstracted from Fang et al. (2001). The DSSTox SDF file supplements the measured ER relative binding affinity for each chemical (ER_RBA) with chemical class assignment to one of 6 major estrogenic classes further divided into 20 subclasses (ChemClass_ERB), along with a qualitative activity measure, ActivityCategory_ER_RBA. A brief narrative SAR rationale pertaining to ER RBA patterns observed by Fang et al. (2001) for each of the 20 subclasses within the database are provided in the field, ActivityCategory_Rationale_ChemClass_ERB. The original NCTR ER database, from which the expanded DSSTox NCTRER was formed, is contained within a larger Endocrine Disruptor Knowledge Base (EDKB) accessible from the FDA Source Website. That website provides online access to a relational database comprised of in vitro and in vivo experimental data for about 2000 natural and synthetic compounds, much of this extracted from the literature and representing testing in many laboratories. Data are included for biological assays that measure estrogenic and androgenic activity. Estrogenic endpoints include in vitro assays for estrogen receptor competitive binding affinity, cell proliferation, and reporter-gene assays, and in vivo assays for uterotrophic activity (i.e., uterine weight gain and vaginal cornification). The database also contains a bibliography of over 1200 citations, many of which include abstracts.
Estrogen receptor relative binding affinity is determined using a competitive receptor binding assay as described in NCTRER Ref (Blair et al., 2000). Briefly, a chemical competes with radiolabeled E2 (i.e., estradiol) for binding to the ER in rat uterine cytosol and the concentration of chemical that causes 50% inhibition of E2 binding (i.e., IC50) is measured. The ER_RBA is calculated by dividing the IC50 of E2 (9X10-10M) by the IC50 of the competitor and multiplying by 100 (E2 RBA = 100). The validated assay tested 1nM E2 with concentrations of competitor ranging from 1nM to 1mM. The larger the ER_RBA values, the greater the binding affinity; ER_RBA > 100 means compound has greater binding affinity than natural ER ligand, E2. […] Activity Score is mapping of LOG_ER_RBA values (ER-RBA>1E-5), spanning activity range [MIN, MAX] onto Integer 20-100 Activity range, where 100 is highest potency and 20 is lowest active potency. If Activity Outcome is "active": Activity Score = 80 * INTEGER[(LOG_ER_RBA - MIN)/(MAX […] MIN)]. If Activity Outcome is "inconclusive" (i.e., slight binder): Activity Score = 5.

Where [1] appears, read: ChemClass_ERB: Phenols Alkyloxy.
The mark [2] stands for this setting: ChemClass_ERB: Phenols Parabens.
Setting [3] is: ChemClass_ERB: Diphenylmethanes DDTs.
[4] abbreviates: ChemClass_ERB: Steroids With aromatic A ring.
The mark [5] stands for this setting: ChemClass_ERB: Steroids Without aromatic A ring.
The mark [6] stands for this setting: ChemClass_ERB: Diphenylmethanes Diphenolalkanes.
Where [7] appears, read: ChemClass_ERB: DES Hexestrol derivatives.
Where [8] appears, read: ChemClass_ERB: Phytoestrogens Mycoestrogens.
[9] abbreviates: ChemClass_ERB: Phytoestrogens Flavones.
Where [10] appears, read: ChemClass_ERB: Phytoestrogens Flavanones.
[11] abbreviates: ChemClass_ERB: Phytoestrogens Chalconoids.
Setting [12] is: ChemClass_ERB: Phytoestrogens Isoflavones.

On to `c1ccc2c(c1)OCCOCCOc1ccccc1OCCOCCO2`, for which the outcome (ChemClass_ERB: Misc) was inactive. Take `C/C=C/c1ccc(O)c(OC)c1`: the result under setting [1] was inactive. `CC/C(=C(/CC)c1ccc(O)cc1)c1ccc(O)cc1`: the relative binding affinity (ChemClass_ERB: DES Derivatives) was 398%. Regarding `O=C(c1ccccc1)c1ccc(O)cc1O`, the relative binding affinity (ChemClass_ERB: Diphenylmethanes Benzophenones) was 0.00245%. `CCNc1nc(Cl)nc(NC(C)C)n1`: the result (ChemClass_ERB: Misc) was inactive. For the compound `CCCCCCCOC(=O)c1ccc(O)cc1`, under setting [2], the relative binding affinity was 0.00812%. On to `Clc1ccc(C(c2ccc(Cl)cc2)C(Cl)(Cl)Cl)cc1`, for which the outcome under setting [3] was inactive. For `C[C@@]12CCC[C@H]1[C@@H]1CCc3cc(O)ccc3[C@H]1CC2`, the relative binding affinity under setting [4] was 13.8%. For `C[C@]12CCC(=O)C=C1CC[C@@H]1[C@@H]2[C@@H](O)C[C@]2(C=O)[C@@H](C(=O)CO)CC[C@@H]12`, under setting [5], the result was inactive. `CCC(C)(c1ccc(O)cc1)c1ccc(O)cc1`: under setting [6], the relative binding affinity was 0.0851%. Regarding `O=C(C(=O)c1ccc(O)cc1O)c1ccc(O)cc1O`, the relative binding affinity under setting [7] is 0.209%. `C[Si](C)(Cc1ccccc1)O[Si](C)(C)Cc1ccccc1`: the outcome (ChemClass_ERB: Misc) was inactive. On to `C[C@H]1CCC[C@@H](O)CCCCCc2cc(O)cc(O)c2C(=O)O1`, for which, under setting [8], the relative binding affinity is 0.646%. `CC[C@H](c1ccc(O)cc1)[C@@H](CC)c1ccc(O)cc1`: the relative binding affinity under setting [7] was 301%. For the compound `CCCCc1ccccc1`, the result (ChemClass_ERB: Misc) was inactive. Take `C[C@]12CC[C@H](O)C[C@@H]1CC[C@@H]1[C@@H]2CC[C@]2(C)[C@@H](O)CC[C@@H]12`: under setting [5], the relative binding affinity was 0.12%. With `CCCCOC(=O)c1ccc(N)cc1`, the result (ChemClass_ERB: Misc) was inactive.

With `O=c1cc(-c2ccccc2)oc2ccccc12`, the result under setting [9] was inactive. Regarding `CNC(=O)Oc1cccc2ccccc12`, the outcome (ChemClass_ERB: Misc) was inactive. For `C[C@]12CC[C@@H]3c4ccc(O)cc4CC[C@H]3[C@@H]1CCC2=O`, the relative binding affinity under setting [4] is 7.24%. Regarding `CC/C(=C(/CC)c1ccc(OC)cc1)c1ccc(OC)cc1`, the relative binding affinity (ChemClass_ERB: DES Derivatives) was 0.056%. Consider `O=C1CC(c2ccccc2)Oc2ccccc21` (centres undefined), for which the outcome under setting [10] was inactive. `Oc1ccc(-c2ccccc2)cc1`: the relative binding affinity (ChemClass_ERB: Biphenyls nonchlorinated) was 0.00091%. Take `CC(C)CCCCCCOC(=O)c1ccccc1C(=O)OCCCCCCC(C)C`: the result (ChemClass_ERB: Misc) was inactive. Turning to `O=c1c(O)c(-c2ccc(O)cc2)oc2ccc(O)cc12`, the relative binding affinity under setting [9] is 0.447%.

For the compound `Oc1ccc(CCc2ccc(O)cc2)cc1`, the relative binding affinity under setting [7] is 0.0363%. With `C[C@]12CC[C@H]3[C@@H](CCC4=CC(=O)CC[C@@]43C)[C@@H]1CC[C@H]2O`, the result under setting [5] was inactive. `COC(=O)c1ccccc1C(=O)OC`: the outcome (ChemClass_ERB: Misc) was inactive. `C[C@@H]1O[C@@H](O[C@H]2[C@H](Oc3cc(O)c4c(c3)O[C@H](c3ccc(O)cc3)CC4=O)O[C@H](CO)[C@@H](O)[C@@H]2O)[C@H](O)[C@H](O)[C@H]1O`: the outcome under setting [10] was inactive. In the case of `C[C@]12C[C@H](O)[C@H]3[C@@H](CCC4=CC(=O)CC[C@@]43C)[C@@H]1CC[C@@H]2C(=O)CO`, the result under setting [5] was inactive. With `C#C[C@]1(O)CC[C@H]2[C@@H]3CCc4cc(O)ccc4[C@H]3[C@@H](OC)C[C@@]21C`, the relative binding affinity under setting [4] was 13.8%. As for `O=C1C=CC(=C(c2ccc(O)cc2)c2ccc(O)cc2)C=C1`, the relative binding affinity under setting [6] is 0.0316%. `O=P(Oc1ccccc1)(Oc1ccccc1)Oc1ccccc1`: for the setting “ChemClass_ERB: Misc”, the result was inactive. On the same count and under the same terms, the result for `CC12CCC(CC1)C(C)(C)O2` reads “inactive”; that for `C=CC(C)(O)CC/C=C(\C)CCC=C(C)C` (centres undefined), “inactive”. For `CC[C@@H](c1ccc2cc(O)ccc2c1)C(C)(C)C(=O)O`, the relative binding affinity (ChemClass_ERB: Misc) is 0.955%. As to `Oc1ccc(C(=C(Cl)Cl)c2ccc(O)cc2)cc1`, the relative binding affinity under setting [3] was 2.63%. Turning to `O=c1cc(-c2ccccc2)oc2cc(O)c(O)c(O)c12`, under setting [9], the relative binding affinity was 0.0009%.

With `C=CCc1ccc(O)c(OC)c1`, the result under setting [1] was inactive. For `COC(=O)c1ccc(O)cc1`, the relative binding affinity under setting [2] is 0.00036%.

In the case of `OCc1ccccc1`, the outcome (ChemClass_ERB: Misc) was inactive. Regarding `Oc1ccc(-c2cc(Cl)c(Cl)c(Cl)c2Cl)cc1`, under “ChemClass_ERB: Biphenyls PCBs”, the relative binding affinity was 0.23%. On to `Oc1ccccc1Cc1ccccc1O`, for which, under setting [6], the outcome was inactive. `O=C1C[C@@H](c2ccc(O)cc2)Oc2cc(O)cc(O)c21`: the relative binding affinity under setting [10] was 0.0074%. Turning to `CCCCCCCCCc1ccc(O)cc1`, the relative binding affinity (ChemClass_ERB: Phenols Alkyl) is 0.0295%.

Regarding `CCc1c(-c2ccc(OC)cc2)c(=O)oc2cc(O)ccc12`, the relative binding affinity (ChemClass_ERB: Phytoestrogens Coumestans) is 0.891%. Regarding `NCCc1ccc(O)c(O)c1`, where the note is “ChemClass_ERB: Misc”, the result was inactive. For `COc1ccccc1-c1cc(=O)c2cc(O)ccc2o1`, the outcome under setting [9] was inactive.

For `O=c1cc(-c2ccccc2)oc2cc(O)ccc12`, the result under setting [9] was inactive. Consider `C[C@H]1CCCC(=O)CCCCCc2cc(O)cc(O)c2C(=O)O1`, for which the relative binding affinity under setting [8] is 2.09%.

In the case of `CCCCCCCCCCCCc1ccc(O)cc1`, for the setting “ChemClass_ERB: Phenols Alkyl”, the relative binding affinity is 0.0186%.

With `CCCOC(=O)c1ccc(O)cc1`, under setting [2], the relative binding affinity is 0.0006%. As to `O=c1c(O)c(-c2cc(O)c(O)c(O)c2)oc2cc(O)cc(O)c12`, under setting [9], the relative binding affinity was 0.00177%. For the compound `O=C(CCc1ccc(O)cc1)c1c(O)cc(O)cc1O`, the relative binding affinity under setting [11] was 0.069%. On to `CCc1cccc(O)c1`, for which, under “ChemClass_ERB: Phenols Alkyl”, the relative binding affinity was 0.00013%. For the compound `CC(C)(C)c1cc(Cc2cc(C(C)(C)C)c(O)c(C(C)(C)C)c2)cc(C(C)(C)C)c1O`, under setting [6], the outcome was inactive. Regarding `ClC1(Cl)C2(Cl)C3(Cl)C4(Cl)C(Cl)(Cl)C5(Cl)C3(Cl)C1(Cl)C5(Cl)C24Cl` (centres undefined), the result (ChemClass_ERB: Misc) was inactive. With `Cc1ccc2c(C)cccc2c1`, the outcome (ChemClass_ERB: Misc) was inactive. As for `O=C(/C=C/c1ccccc1)c1ccccc1`, under setting [11], the relative binding affinity is 0.00151%. With `CNC(=O)Oc1cccc2c1OC(C)(C)C2`, under “ChemClass_ERB: Misc”, the outcome was inactive.

For the compound `O=c1c(-c2ccc(O)cc2)coc2cc(O)ccc12`, under setting [12], the relative binding affinity was 0.022%. On to `C[C@]12CC[C@@H]3c4ccccc4CC[C@H]3[C@@H]1CC[C@@H]2O`, for which the relative binding affinity under setting [4] is 0.501%. As to `Nc1nc2ncc(CNc3ccc(C(=O)N[C@@H](CCC(=O)O)C(=O)O)cc3)nc2c(=O)[nH]1`, the result (ChemClass_ERB: Misc) was inactive.

`O=c1c(-c2ccc(O)c(O)c2)coc2cc(O)ccc12`: the relative binding affinity under setting [12] is 0.00446%.

The values are drawn from PubChem BioAssay AID1204 (EPA DSSTox, 2008).
